Measured values from PMC7377239, “Cardiovascular Effects of Polychlorinated Biphenyls and Their Major Metabolites” (Environmental Health Perspectives, 2020).
Counter-ions that a name gives are not always drawn. Like-named read-outs stand apart in the source and are kept apart here.

System: iCell cardiomyocytes (human iPSC-derived cardiomyocytes)
Test: High-content imaging of cytotoxicity and mitochondrial integrity in iPSC-CMs
Format: cell-based
Settings: Homo sapiens; for viability at 0.01 µM / activity at 0.01 µM / viability at 0.1 µM / activity at 0.1 µM / viability at 1 µM / activity at 1 µM / viability at 10 µM / activity at 10 µM / viability at 100 µM / activity at 100 µM: Cardiomyocyte, 0.00 µM = 100.00; for viability at 0.1 µM / activity at 0.1 µM: 0.10 µM; for minimal effective concentration: iPSC-CM
Outline: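 This assay measured cytotoxicity and mitochondrial integrity in iPSC cardiomyocytes held in 40μL maintenance medium. After compound exposure, a 2× staining solution with Hoechst 33342 (4μg/mL) and MitoTracker™ Orange (0.4μM) was applied for 15 min at 37°C. Cells were washed, fixed with 3.7% formaldehyde, imaged on DAPI and Cy3 channels, and scored in MetaXpress®.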

`O=S(=O)(O)Oc1ccc(-c2cccc(Cl)c2)cc1Cl` [4-yl PCB 11 sulfate] was tested, and the viability at 0.01 µM (1.5 h, read-out: cm.cam.90min) was 100%, the activity at 0.01 µM (1.5 h, read-out: cm.mii.90min) was 101% and the activity at 0.01 µM (1.5 h, read-out: cm.mito.90min) was 99.5%. It also gave a viability at 0.01 µM (1.5 h, read-out: cm.tc.90min) of 100%, a viability at 0.1 µM (1.5 h, read-out: cm.cam.90min) of 99.7% and an activity at 0.1 µM (1.5 h, read-out: cm.mii.90min) of 117%. For the same compound, the activity at 0.1 µM (1.5 h, read-out: cm.mito.90min) was 99.5%, the viability at 0.1 µM (1.5 h, read-out: cm.tc.90min) was 99.6% and the viability at 1 µM (1.5 h, read-out: cm.cam.90min) was 101%. For the same compound, the activity at 1 µM (1.5 h, read-out: cm.mii.90min) was 114%, the activity at 1 µM (1.5 h, read-out: cm.mito.90min) was 101% and the viability at 1 µM (1.5 h, read-out: cm.tc.90min) was 101%. For the same compound, the viability at 10 µM (1.5 h, read-out: cm.cam.90min) was 98.7%, the activity at 10 µM (1.5 h, read-out: cm.mii.90min) was 103% and the activity at 10 µM (1.5 h, read-out: cm.mito.90min) was 98.5%. For the same compound, the viability at 10 µM (1.5 h, read-out: cm.tc.90min) was 98.6%, the viability at 100 µM (1.5 h, read-out: cm.cam.90min) was 99.5% and the activity at 100 µM (1.5 h, read-out: cm.mii.90min) was 108%. The activity at 100 µM (1.5 h, read-out: cm.mito.90min) was 99.1%, the viability at 100 µM (1.5 h, read-out: cm.tc.90min) was 99.5% and the viability at 0.01 µM (24 h, read-out: cm.cam.24hrs) was 88.6%. The activity at 0.01 µM (24 h, read-out: cm.mii.24hrs) was 106%, the activity at 0.01 µM (24 h, read-out: cm.mito.24hrs) was 87.2% and the viability at 0.01 µM (24 h, read-out: cm.tc.24hrs) was 89.5%. The viability at 0.1 µM (24 h, read-out: cm.cam.24hrs) was 101%, the activity at 0.1 µM (24 h, read-out: cm.mii.24hrs) was 114% and the activity at 0.1 µM (24 h, read-out: cm.mito.24hrs) was 102%. It also gave a viability at 0.1 µM (24 h, read-out: cm.tc.24hrs) of 102%, a viability at 1 µM (24 h, read-out: cm.cam.24hrs) of 102% and an activity at 1 µM (24 h, read-out: cm.mii.24hrs) of 101%. For the same compound, the activity at 1 µM (24 h, read-out: cm.mito.24hrs) was 101%, the viability at 1 µM (24 h, read-out: cm.tc.24hrs) was 102% and the viability at 10 µM (24 h, read-out: cm.cam.24hrs) was 85.6%. The activity at 10 µM (24 h, read-out: cm.mii.24hrs) was 102%, the activity at 10 µM (24 h, read-out: cm.mito.24hrs) was 82.8% and the viability at 10 µM (24 h, read-out: cm.tc.24hrs) was 86.3%. It also gave a viability at 100 µM (24 h, read-out: cm.cam.24hrs) of 10.5%, an activity at 100 µM (24 h, read-out: cm.mii.24hrs) of 48.4% and an activity at 100 µM (24 h, read-out: cm.mito.24hrs) of 5.02%. The viability at 100 µM (24 h, read-out: cm.tc.24hrs) was 10.7%, the minimal effective concentration (1.5 h, read-out: cm.cam.90min POD) was 100 µM and the minimal effective concentration (1.5 h, read-out: cm.mii.90min POD) was 100 µM. It also gave a minimal effective concentration (1.5 h, read-out: cm.mito.90min POD) of 100 µM, a minimal effective concentration (1.5 h, read-out: cm.tc.90min POD) of 100 µM and a minimal effective concentration (24 h, read-out: cm.cam.24hrs POD) of 5.91 µM. The minimal effective concentration (24 h, read-out: cm.mii.24hrs POD) was 49.2 µM, the minimal effective concentration (24 h, read-out: cm.mito.24hrs POD) was 7.07 µM and the minimal effective concentration (24 h, read-out: cm.tc.24hrs POD) was 6.38 µM.
